Measurements reported in the supplement of paper PMC10307832.

Key:
Experiment in all cases: relative viability (nuclei count vs DMSO), 5 days (fraction); higher = more cells survive
[1] = compound: CC1(C)CNc2cc(NC(=O)c3cccnc3NCc3ccncc3)ccc21 [Motesanib] + O=C(CCCCCCC(=O)Nc1ccccc1)NO [Vorinostat] (partner 1 µM)
Procedure, shortened: (§1)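 Lung cancer cell lines in 1536-well plates got either a single drug or a fixed anchor-drug dose together with five library-drug doses (not always all listed) in √10 steps, by pin tool, on the day after seeding. Nuclei were counted after 5 days, and relative viability is the treated-to-vehicle ratio of nuclei counts. Values are medians of duplicate plates.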

[2] = compound: CC1(C)CNc2cc(NC(=O)c3cccnc3NCc3ccncc3)ccc21 [Motesanib] + COc1cc2c(Oc3ccc(NC(=O)C4(C(=O)Nc5ccc(F)cc5)CC4)cc3F)ccnc2cc1OCCCN1CCOCC1 [Foretinib] (partner 0.25 µM)
Procedure, shortened: as §1

[3] = compound: C[C@@]1(C(=O)Nc2ccc(F)nc2)CCCN1c1nc(Nc2cc(C3CC3)n[nH]2)c2cccn2n1 + CC(=O)Nc1cccc(-n2c(=O)n(C3CC3)c(=O)c3c(Nc4ccc(I)cc4F)n(C)c(=O)c(C)c32)c1 [Trametinib] (partner 0.02 µM)
Procedure, shortened: as §1

[4] = compound: C[C@@]1(C(=O)Nc2ccc(F)nc2)CCCN1c1nc(Nc2cc(C3CC3)n[nH]2)c2cccn2n1 + CC1(C)CCC(c2ccc(Cl)cc2)=C(CN2CCN(c3ccc(C(=O)NS(=O)(=O)c4ccc(N[C@H](CCN5CCOCC5)CSc5ccccc5)c(S(=O)(=O)C(F)(F)F)c4)cc3)CC2)C1 [Navitoclax] (partner 0.5 µM)
Procedure, shortened: as §1

| Cell Line | relative viability ([1]; first compound 0.01 µM) | relative viability ([1]; first compound 0.03162 µM) | relative viability ([1]; first compound 0.1 µM) | relative viability ([1]; first compound 0.3162 µM) | relative viability ([1]; first compound 1 µM) | relative viability ([2]; first compound 0.01 µM) | relative viability ([2]; first compound 0.03162 µM) | relative viability ([2]; first compound 0.1 µM) | relative viability ([2]; first compound 0.3162 µM) | relative viability ([2]; first compound 1 µM) | relative viability ([3]; first compound 0.04 µM) | relative viability ([3]; first compound 0.1265 µM) | relative viability ([3]; first compound 0.4 µM) | relative viability ([3]; first compound 1.265 µM) | relative viability ([4]; first compound 0.04 µM) | relative viability ([4]; first compound 0.1265 µM) | relative viability ([4]; first compound 0.4 µM) | relative viability ([4]; first compound 1.265 µM) |
| --- | --- | --- | --- | --- | --- | --- | --- | --- | --- | --- | --- | --- | --- | --- | --- | --- | --- | --- |
| LXF-289 | 0.766 | 0.719 | 0.78 | 0.932 | 0.751 | 1 | 0.952 | 0.924 | 1.03 | 0.987 | 0.67 | 0.619 | 0.645 | 0.717 | 0.987 | 0.917 | 0.941 | 0.991 |
| NCI-H23 | 0.597 | 0.549 | 0.516 | 0.741 | 0.51 | 0.952 | 0.718 | 0.892 | 1.38 | 0.933 | 0.233 | 0.199 | 0.178 | 0.252 | 0.658 | 0.587 | 0.444 | 0.664 |
| NCI-H358 | 0.641 | 0.67 | 0.71 | 0.819 | 0.649 | 0.599 | 0.712 | 0.67 | 0.807 | 0.629 | 0.129 | 0.106 | 0.112 | 0.101 |  |  |  |  |
| NCI-H522 | 0.89 | 0.927 | 0.92 | 0.909 | 1.05 |  |  |  |  |  | 0.692 | 0.696 | 0.595 | 0.586 |  |  |  |  |
| NCI-H650 | 0.435 | 0.439 | 0.554 | 0.549 | 0.477 | 1.05 |  | 1.02 | 0.974 | 1.02 | 0.867 | 0.572 | 0.743 | 0.611 |  |  |  |  |
| NCI-H661 | 0.775 | 0.737 | 0.766 | 0.797 | 0.883 | 0.998 | 1.1 | 0.991 | 1.13 | 0.9 | 0.605 | 0.55 | 0.591 | 0.555 |  |  |  |  |
| NCI-H1299 |  |  |  |  |  | 1.06 | 1.11 | 1.11 | 1.16 | 1.12 |  |  |  |  | 1.08 | 0.976 | 1.04 | 1.02 |
| NCI-H1563 |  |  |  |  |  | 0.904 | 0.899 | 0.915 | 0.909 | 0.889 |  |  |  |  |  |  |  |  |
| NCI-H1623 |  |  |  |  |  | 0.869 | 0.889 | 0.763 | 0.871 | 0.873 |  |  |  |  |  |  |  |  |
| NCI-H1648 | 0.314 |  |  | 0.557 | 0.421 |  |  |  |  |  | 0.391 | 0.285 | 0.282 | 0.39 |  |  |  |  |
| NCI-H1703 |  |  |  |  |  | 0.349 | 0.318 | 0.325 | 0.395 | 0.355 |  |  |  |  | 1.25 | 1.02 | 0.783 | 0.743 |
| NCI-H1792 |  |  |  |  |  |  |  |  |  |  | 0.343 | 0.188 | 0.145 | 0.211 | 0.422 | 0.36 | 0.464 | 0.393 |
| NCI-H2342 | 0.702 | 0.77 | 0.715 | 0.704 | 0.751 | 1.03 | 1.09 | 1.12 | 1.1 | 0.971 | 0.668 | 0.813 | 0.605 | 0.7 |  |  |  |  |
| SW 900 | 0.542 | 0.404 | 0.574 | 0.649 | 0.59 | 0.824 | 0.9 | 1.36 | 0.887 | 0.874 | 0.764 | 0.805 | 0.808 | 0.572 |  |  |  |  |
